# Experiments:
# rat VPA model of autism [1] = experiment: Open field behaviour (P31-32): locomotor activity, centre crossing, circling, self-grooming in VPA rat model; assay type: in vivo; parameters: key to open field (spontaneous LMA on day 1) / open field (habituation LMA on day 2) / centre crossing / centre time / Circling / Grooming: +: improvement; Ø: no change
# Experimental: (§1) In the first study, a sub-chronic 8-day dosing schedule was employed with the test compound CBD administered alone (10, 30 and 60 mg/kg, p.o. VPA/CBD; dose volume 5 ml/kg). Control animals were administered sterile saline (0.9% w/v, i.p.) in utero and the vehicle control (ethanol: Kolliphor HS-15:0.9% saline (1:1:18, v/v/v) p.o. VEH/VEH). The test compound and vehicle control were administered to the animals once daily for 7 days prior to, and once again on each day of behavioural assessment, 60 minutes prior to test which consisted of a battery of behavioural paradigms: P30 social play and bottle brush test, P31-32 open field exploratory behaviour. A reference positive control, the atypical antipsychotic risperidone (0.125 mg/kg, i.p., once per day for 8 days prior to and for duration of behavioural testing), was included in study one for comparison. Subsequent to behavioural analysis the effect of CBD on gastrointestinal permeability was evaluated four hours following oral administration of fluorescein isothiocyanate-labelled dextran measured in plasma on postnatal day 33. On postnatal day 34, 60 minutes post a final treatment with the test agents, animals were humanely euthanised and samples collected to evaluate inflammatory biomarkers, gastrointestinal function and histology. 5 In the second study, the sub-optimal dose of CBD (30 mg/kg, p.o.) was evaluated in combination with administration of THC at increasing concentration (0.75, 1.5 and 3 mg/kg, p.o. VPA/CBD+THC). Comparison was made to CBD administered alone at the sub-optimal and effective doses (30 and 60 mg/kg, p.o.) and to vehicle controls as per study one. Behavioural and gastrointestinal readouts were examined as per study one with terminal samples collected on the final day of the experiment.
# Following eight days treatment with the test compound animals were scored for locomotor activity and exploratory behaviour in two 10-minute trials within an open field arena over two days, a protocol widely used at Berand and allows to distinguish between day 1 spontaneous locomotor activity and day 2 locomotor activity following habituation (pre-exposure to the arena on day 1). Each day the animals were placed into a […] black Perspex box with 30 cm side walls, under low light and monitored via remote video capture for spontaneous activity. Linked to Ethovision XT image analysis software these videos were analysed for total distance moved and number and duration of centre zone crossings as an indication of hyperactivity and anxiety-like behaviour. Manual scoring of the videos was conducted (blinded to treatment group) to determine frequency of circling behaviour (number of 360 degree turns) and duration of self-grooming (n=8).
# rat VPA model of autism [2] = experiment: Gastrointestinal permeability (P33), FITC-dextran in plasma, VPA rat model; assay type: in vivo; parameters: key to gastrointestinal permeability: +: improvement; Ø: no change
# Experimental: as §1
# This assay is an indirect measure of total intestinal permeability. Animals are given an oral gavage of a fluorescently labelled small molecule (FITC-dextran), and at a subsequent timepoint the difference in fluorescence pre- and post-gavage is measured in plasma (Thevaranjan et al., 2017). Prior to gavage, a 50 μl sample of blood was collected by tail vein puncture. Animals then received 500 μl of 80 mg/ml FITC dextran (4 kDa Merck Ireland) by oral gavage and four hours later a second tail vein blood sample was collected. Tail vein blood sampling is facilitated through use of local anaesthetic EMLA cream following sterilisation of the tail. Blood samples were treated with 15% v/v acid-citrate-dextrose solution as an anticoagulant (38 mM citric acid, 107 mM sodium citrate, 136 mM dextrose), then mixed thoroughly by inversion and centrifuged at 5,000 rpm for 10 minutes. The plasma supernatant was transferred to microfuge tubes stored protected from light at 4° C. Each pre- and post-test plasma sample was diluted 1:5 in 1×PBS and a 100 μl aliquot was transferred to a 96-well plate. Readings of relative fluorescence units by a spectrophotometer were measured in duplicate and averaged. Fluorescence was determined at 530 nm with excitation at 485 nm. Permeability was expressed as relative fluorescence units between the groups being compared, determined by subtracting the PBS blank fluorescence from all samples and then subtracting the post-gavage fluorescence from the pre-gavage fluorescence. Treatment groups were prepared and analysed according to a blocked design to prevent bias.
# [3] = cohort two, CBD 30 mg/kg, THC 0 mg/kg p.o.
# [4] = cohort two, CBD 60 mg/kg, THC 0 mg/kg p.o.
# [5] = study one, CBD 60 mg/kg, vs VPA/VEH
# [6] = cohort one, risperidone 0.125 mg/kg i.p.
# [7] = study one, risperidone 0.125 mg/kg i.p.
smiles,measurement,setting,value
"C=C(C)[C@@H]1CCC(C)=C[C@H]1c1c(O)cc(CCCCC)cc1O [CBD, cannabidiol]",Circling,"rat VPA model of autism [1]; cohort one, CBD 10 mg/kg p.o.",Ø
same,Grooming,"rat VPA model of autism [1]; cohort one, CBD 10 mg/kg p.o.",Ø
same,centre crossing,"rat VPA model of autism [1]; cohort one, CBD 10 mg/kg p.o.",Ø
same,centre time,"rat VPA model of autism [1]; cohort one, CBD 10 mg/kg p.o.",Ø
same,open field (habituation LMA on day 2),"rat VPA model of autism [1]; cohort one, CBD 10 mg/kg p.o.",Ø
same,open field (spontaneous LMA on day 1),"rat VPA model of autism [1]; cohort one, CBD 10 mg/kg p.o.",Ø
same,Circling,"rat VPA model of autism [1]; cohort one, CBD 30 mg/kg p.o.",Ø
same,Grooming,"rat VPA model of autism [1]; cohort one, CBD 30 mg/kg p.o.",Ø
same,centre crossing,"rat VPA model of autism [1]; cohort one, CBD 30 mg/kg p.o.",Ø
same,centre time,"rat VPA model of autism [1]; cohort one, CBD 30 mg/kg p.o.",Ø
same,open field (habituation LMA on day 2),"rat VPA model of autism [1]; cohort one, CBD 30 mg/kg p.o.",Ø
same,open field (spontaneous LMA on day 1),"rat VPA model of autism [1]; cohort one, CBD 30 mg/kg p.o.",Ø
same,Circling,"rat VPA model of autism [1]; cohort one, CBD 60 mg/kg p.o.",+
same,Grooming,"rat VPA model of autism [1]; cohort one, CBD 60 mg/kg p.o.",+
same,centre crossing,"rat VPA model of autism [1]; cohort one, CBD 60 mg/kg p.o.",Ø
same,centre time,"rat VPA model of autism [1]; cohort one, CBD 60 mg/kg p.o.",Ø
same,open field (habituation LMA on day 2),"rat VPA model of autism [1]; cohort one, CBD 60 mg/kg p.o.",+
same,open field (spontaneous LMA on day 1),"rat VPA model of autism [1]; cohort one, CBD 60 mg/kg p.o.",+
same,Circling,rat VPA model of autism [1]; [3],+
same,Grooming,rat VPA model of autism [1]; [3],Ø
same,centre crossing,rat VPA model of autism [1]; [3],Ø
same,centre time,rat VPA model of autism [1]; [3],Ø
same,open field (habituation LMA on day 2),rat VPA model of autism [1]; [3],Ø
same,open field (spontaneous LMA on day 1),rat VPA model of autism [1]; [3],Ø
same,Circling,rat VPA model of autism [1]; [4],+
same,Grooming,rat VPA model of autism [1]; [4],+
same,centre crossing,rat VPA model of autism [1]; [4],+
same,centre time,rat VPA model of autism [1]; [4],+
same,open field (habituation LMA on day 2),rat VPA model of autism [1]; [4],+
same,open field (spontaneous LMA on day 1),rat VPA model of autism [1]; [4],+
same,"increase in circling behaviour, day 2","rat VPA model of autism [1]; study one, CBD 60 mg/kg",significantly attenuated
same,"increase in self grooming, day 2","rat VPA model of autism [1]; study one, CBD 60 mg/kg",reversed
same,"increase in locomotor activity (distance travelled), day one",rat VPA model of autism [1]; [5],significantly prevented
same,"increase in locomotor activity (distance travelled), day two",rat VPA model of autism [1]; [5],significantly prevented
same,"increase in circling and grooming behaviour, day one","rat VPA model of autism [1]; study one, CBD (10, 30 and 60 mg/kg)",without effect
same,"increase in circling behaviour, day 2","rat VPA model of autism [1]; study two, CBD 30 mg/kg",without effect
same,"increase in circling, day one","rat VPA model of autism [1]; study two, CBD 30 mg/kg",significantly prevented
same,"increase in locomotor activity (distance travelled), day one","rat VPA model of autism [1]; study two, CBD 30 mg/kg",without effect
same,"increase in locomotor activity (distance travelled), day two","rat VPA model of autism [1]; study two, CBD 30 mg/kg",without effect
same,"increase in self grooming, day 2","rat VPA model of autism [1]; study two, CBD 30 mg/kg",without effect
same,"increase in circling behaviour, day 2","rat VPA model of autism [1]; study two, CBD 60 mg/kg",significantly attenuated
same,"increase in circling, day one","rat VPA model of autism [1]; study two, CBD 60 mg/kg",significantly prevented
same,"increase in locomotor activity (distance travelled), day one","rat VPA model of autism [1]; study two, CBD 60 mg/kg",significantly prevented
same,"increase in locomotor activity (distance travelled), day two","rat VPA model of autism [1]; study two, CBD 60 mg/kg",significantly prevented
same,"increase in self grooming, day 2","rat VPA model of autism [1]; study two, CBD 60 mg/kg",reversed
same,gastrointestinal permeability,"rat VPA model of autism [2]; cohort one, CBD 10 mg/kg p.o.",Ø
same,gastrointestinal permeability,"rat VPA model of autism [2]; cohort one, CBD 30 mg/kg p.o.",+
same,gastrointestinal permeability,"rat VPA model of autism [2]; cohort one, CBD 60 mg/kg p.o.",+
same,gastrointestinal permeability,rat VPA model of autism [2]; [3],Ø
same,gastrointestinal permeability,rat VPA model of autism [2]; [4],+
same,increase in FITC dextran fluorescence (gastrointestinal permeability),"rat VPA model of autism [2]; study one, CBD 30 mg/kg, vs VPA/VEH",significantly prevented
same,increase in FITC dextran fluorescence (gastrointestinal permeability),rat VPA model of autism [2]; [5],significantly prevented
same,increase in FITC dextran fluorescence (gastrointestinal permeability),"rat VPA model of autism [2]; study two, CBD 30 mg/kg",without effect
same,increase in FITC dextran fluorescence (gastrointestinal permeability),"rat VPA model of autism [2]; study two, CBD 60 mg/kg",significantly prevented
"Cc1nc2n(c(=O)c1CCN1CCC(c3noc4cc(F)ccc34)CC1)CCCC2 [Risperidone, risperidone]",Circling,rat VPA model of autism [1]; [6],Ø
same,Grooming,rat VPA model of autism [1]; [6],Ø
same,centre crossing,rat VPA model of autism [1]; [6],Ø
same,centre time,rat VPA model of autism [1]; [6],Ø
same,open field (habituation LMA on day 2),rat VPA model of autism [1]; [6],+
same,open field (spontaneous LMA on day 1),rat VPA model of autism [1]; [6],+
same,"circling and self-grooming, day one or two",rat VPA model of autism [1]; [7],did not reach significance
same,"increased locomotor activity, day two",rat VPA model of autism [1]; [7],significantly reduced
same,"locomotor hyperactivity, day one",rat VPA model of autism [1]; [7],significantly reduced
same,gastrointestinal permeability,rat VPA model of autism [2]; [6],Ø
same,increase in FITC dextran fluorescence (gastrointestinal permeability),rat VPA model of autism [2]; [7],without effect
